The values below come from publication PMC3258498 (Journal of Medicinal Chemistry, 2011).

The test system of test [1] is HIV-1 Y181C variant. Conditions: read-out: activity for the Y181C-containing variant; cited from earlier work.
The subject of the next test is WT HIV-1. Conditions: cited from earlier work.
The test system of test [2] is IIIB strain of HIV-1 (WT). Description: Anti-HIV-1 activity in infected MT-2 human T-cells, MTT colorimetric method. Conditions: for gain in potency: in going from 1. It counts as cell-based.
Test [3] relates to HIV-1 Y181C variant. Conditions: read-out: EC50 Y181C; Literature data, MT4 cells; cited from earlier work.
The subject of test [4] is HIV-1 K103N/Y181C variant. Conditions: read-out: EC50 K103N/Y181C; Literature data, MT4 cells; cited from earlier work.
[5] abbreviates: read-out: activity for WT HIV-1.

pEC50: −log10 of the molar value. Several values for one entry are separate records, joined by “and”; a condition that tells them apart may be missing. Equal values may be shown once. Read-outs that look alike come from different tables or passages of the source.

On to `Cc1cc(/C=C/C#N)cc(C)c1Nc1ccnc(Nc2ccc(C#N)cc2)n1` [compound 39, 4-[[4-[[4-[(1E)-2-cyanoethenyl]-2,6-dimethylphenyl]amino]-2-pyrimidinyl]amino]benzonitrile], for which the pEC50 in the test with HIV-1 Y181C variant [1] and with WT HIV-1 (setting [5]) was above 8.30 throughout. With `N#Cc1ccc(Oc2cc(Cl)ccc2Cl)c(OCCc2ccncc2)c1` [compound 33], the “worsening of the EC50 value” in test [2] (relative to 31) is on record as 18 fold. On to `O=c1ccn(CCOc2ccc(Cl)cc2Cc2cc(Cl)ccc2Cl)c(=O)[nH]1` [compound 10], for which the gain in potency entry in test [2] is “ca. 15 fold”. For `CCc1c(C)[nH]c(=O)c(I)c1Oc1cccc(/C=C/C#N)c1` [compound 38], the pEC50 in the test with HIV-1 Y181C variant [1] and with WT HIV-1 (setting [5]) was above 8.30 in each case.

Take `Cc1ccnc2c1NC(=O)c1cccnc1N2C1CC1` [nevirapine]: the pEC50 (in the test with HIV-1 Y181C variant [3]; in test [4]) was below 5.00 each time. For the compound `O=c1ccn(CCOc2ccc(Cl)cc2Cc2c(Cl)cccc2Cl)c(=O)[nH]1` [compound 11], the gain in potency result in test [2] was “ca. 15 fold”. With `Cc1cc(C)cc(Oc2c(CSCc3ccco3)c(C)[nH]c(=O)c2I)c1` [compound 3], the pEC50 in the test with WT HIV-1 (read-out: activity towards WT HIV-1) was 8.00 to 9.00 and 8.70.
